Consider two compounds from US20220062299A1, “USE OF GLUCOCORTICOID STEROIDS IN PREVENTING AND TREATING CONDITIONS OF MUSCLE WASTING, AGING AND METABOLIC DISORDER” (NORTHWESTERN UNIVERSITY, priority 2018, published 2022).

Assay [1] deals with Duchenne muscular dystrophy boys. On the set-up: dose or concentration left out as unconfirmed. To be noted: cited from earlier work.
For assay [2], the system named is mdx; Dysf-null; Sgcg-null mice. Kind of assay: Once-weekly glucocorticoids in three murine models of muscle disease. It is filed as in vivo, mouse. The conditions noted are these: 1 mg/kg once-weekly, contrary to daily dosing. The source says:
Glucocorticoid steroids are widely prescribed drugs for chronic inflammatory conditions, and their daily intake generally correlates with muscle wasting and weakness, osteoporosis, obesity and metabolic disorders. […] (Quattrocelli et al, J Clin Invest 2017; Quattrocelli et al, Am J Pathol 2017; Quattrocelli et al., JCI Insight. 2019 Dec. 19; 4(24). pii: 132402. doi: 10.1172/jci.insight.132402).

With `CC/C=C\C/C=C\C/C=C\C/C=C\C/C=C\C/C=C\CCC(=O)NCCNC(=O)c1ccccc1O` [Edasalonexent], in assay [1], the muscle disease progression result is recorded as “delayed”.

Turning to `CC(=O)OCC(=O)[C@@]12N=C(C)O[C@@H]1C[C@H]1[C@@H]3CCC4=CC(=O)C=C[C@]4(C)[C@H]3[C@@H](O)C[C@@]12C` [deflazacort], the “muscle force and mass” value in assay [2] is “improved”.
